Data published in article PMC7561186, “Rational design of balanced dual-targeting antibiotics with limited resistance” (PLoS Biology, 2020).
Read-outs that look alike come from different tables or passages of the source.

How the values were obtained:
CHO-K1 cells = type: cell-based, hamster; details: for % Micronucleated cells / Micronucleus Test Result: 4 hours, CHO-K1
Procedure: Genetic toxicity analysis of compounds was performed in an in vitro micronucleus test, according to the protocol described in Diaz and colleagues (2007), at Eurofins Panlabs (St. Charles, MO, US). Micronucleated cells and micronuclei were enumerated by the use of high-content fluorescent cell imaging. The assay was performed on CHO-K1 cells. […] Experiments were performed in 2 biological replicates. All cell lines were tested as being negative for Mycoplasma contamination.

S. aureus = experiment: pH-dependent MIC determination; type: cell-based; details: Staphylococcus aureus
Procedure: (§1) MICs were determined using a standard serial broth microdilution technique according to the CLSI guidelines. Briefly, bacterial strains were inoculated onto MHBII agar plates and were grown overnight at 37 °C. Next, 3 individual colonies from each strain were inoculated into 1 mL MHBII medium and propagated at 37 °C, 250 rpm overnight. In the cases of Enterococcus and Streptococcus sp., cells were plated to BHI agar plates, and BHI broth was used to determine MICs. […] Following dilutions, each well was seeded with 5×10^4 bacterial cells. All measurements were performed in 3 parallel replicates and to avoid possible edge effects in microwell plates, side rows (A and H) were filled with sterile medium. Following inoculations, plates were covered with lids and wrapped in polyethylene plastic bags to minimize evaporation but allow for O2 transfer. Plates were incubated at 37 °C under continuous shaking at 150 rpm for 18 hours. After incubation, OD600 of each well was measured using a BioTek Synergy 2 microplate reader.

Streptococcus pyogenes = experiment: MIC, broth microdilution (CLSI); type: cell-based
Procedure: as §1

Acinetobacter baumannii = experiment: MIC, broth microdilution (CLSI); type: cell-based
Procedure: as §1

Neisseria gonorrhoeae = experiment: MIC, broth microdilution (CLSI); type: cell-based
Procedure: as §1

Streptococcus pneumoniae = experiment: MIC, broth microdilution (CLSI); type: cell-based
Procedure: as §1

Listeria monocytogenes = experiment: MIC, broth microdilution (CLSI); type: cell-based; details: Listeria monocytogenes ATCC 19111
Procedure: as §1

Shigella flexneri = experiment: MIC, broth microdilution (CLSI); type: cell-based
Procedure: as §1

Pseudomonas aeruginosa = experiment: MIC, broth microdilution (CLSI); type: cell-based
Procedure: as §1

Clostridium difficile = experiment: MIC, broth microdilution (CLSI); type: cell-based
Procedure: as §1

Staphylococcus aureus = experiment: MIC, broth microdilution (CLSI); type: cell-based
Procedure: as §1

Enterococcus faecium = experiment: MIC, broth microdilution (CLSI); type: cell-based
Procedure: as §1

Helicobacter pylori = experiment: MIC, broth microdilution (CLSI); type: cell-based; details: Helicobacter pylori ATCC 43504
Procedure: as §1

[1] = system: S. aureus VISA ATCC 700699 GyrB R144I and GyrB I175T; experiment: Second-step frequency-of-resistance assay in GyrB single mutants; type: cell-based
Procedure: To determine the spontaneous frequency-of-resistance, approximately 10^10 cells from stationary-phase MHBII broth cultures of S. aureus ATCC 700699 and S. aureus ATCC 43300 were plated to antibiotic-containing plates according to a standard protocol to determine frequency-of-resistance. Prior to plating, bacteria were grown overnight in MHBII medium at 37 °C, 250 rpm, collected by centrifugation, and washed once in equal volumes of MHBII broth. From this concentrated cell suspension (250 μL), approximately 10^10 cells were then plated to each MHBII agarose plates. Using agarose instead of agar reduced drug-adsorption and improved the performance of the assay. […] All experiments were performed in at least 3 replicates. Plates were grown at 37 °C for 72 hours. Total CFUs were determined simultaneously in each experiment by plating appropriate dilutions to antibiotic-free MHBII agar plates. Finally, resistance frequencies for each strain were calculated by dividing the number of colonies formed after a 72-hour incubation at 37 °C by the initial viable cell count.

Cc1[nH]c(C(=O)Nc2nc3c(OCc4ccccc4)cc(C(=O)O)cc3s2)c(Cl)c1Cl [ULD2]
% Micronucleated cells (CHO-K1 cells; 1.3 x 10^-4 M): 1.07%
Micronucleus Test Result (CHO-K1 cells; 1.3 x 10^-4 M): - (A negative test (-) result indicates P > 0.05 by t-test and percentage of micronucleated cells less than 2-fold higher than the background level)
% Micronucleated cells (CHO-K1 cells; 2.5 x 10^-4 M): 1.36%
Micronucleus Test Result (CHO-K1 cells; 2.5 x 10^-4 M): - (A negative test (-) result indicates P > 0.05 by t-test and percentage of micronucleated cells less than 2-fold higher than the background level)
% Micronucleated cells (CHO-K1 cells; 3.1 x 10^-5 M): 0.57%
Micronucleus Test Result (CHO-K1 cells; 3.1 x 10^-5 M): - (A negative test (-) result indicates P > 0.05 by t-test and percentage of micronucleated cells less than 2-fold higher than the background level)
% Micronucleated cells (CHO-K1 cells; 5.0 x 10^-4 M): 0.78%
Micronucleus Test Result (CHO-K1 cells; 5.0 x 10^-4 M): - (A negative test (-) result indicates P > 0.05 by t-test and percentage of micronucleated cells less than 2-fold higher than the background level)
% Micronucleated cells (CHO-K1 cells; 6.2 x 10^-5 M): 0.49%
Micronucleus Test Result (CHO-K1 cells; 6.2 x 10^-5 M): - (A negative test (-) result indicates P > 0.05 by t-test and percentage of micronucleated cells less than 2-fold higher than the background level)
genetic toxicity (CHO-K1 cells; CHO-K1 micronucleus assay, in words): No genetic toxicity
MIC (S. aureus; S. aureus ATCC 43300 (MRSA), pH 5.5): 0.008 µg/mL
MIC (S. aureus; S. aureus ATCC 43300 (MRSA), pH 7.3): 0.06 µg/mL
MIC (S. aureus; S. aureus ATCC 700699 (VISA), pH 5.5): 0.0005 µg/mL
MIC (S. aureus; S. aureus ATCC 700699 (VISA), pH 7.3): 0.02 µg/mL
MIC (Streptococcus pyogenes; Streptococcus pyogenes ATCC 14289): 0.25 µg/mL
MIC (Streptococcus pyogenes; Streptococcus pyogenes ATCC 19615): 0.125 µg/mL
MIC (Acinetobacter baumannii; ATCC19606, Acinetobacter baumannii ATCC 19606): 0.5 µg/mL
MIC (Acinetobacter baumannii; Acinetobacter baumannii ATCC 17978): 2 µg/mL
MIC (Acinetobacter baumannii; Acinetobacter baumannii ATCC 19606): 0.5 µg/mL
MIC (Neisseria gonorrhoeae; CCUG57598, Neisseria gonorrhoeae CCUG 57598): ≤ 0.0312 µg/mL
MIC (Neisseria gonorrhoeae; Neisseria gonorrhoeae ATCC 700825): < 0.0312 µg/mL
MIC (Neisseria gonorrhoeae; Neisseria gonorrhoeae CCUG 57598): < 0.0312 µg/mL
MIC (Streptococcus pneumoniae; Streptococcus pneumoniae ATCC 49619): 0.25 µg/mL
MIC (Streptococcus pneumoniae; Streptococcus pneumoniae ATCC 51916): 0.25 µg/mL
MIC (Streptococcus pneumoniae; Streptococcus pneumoniae ATCC 700673): 0.25 µg/mL
MIC (Listeria monocytogenes; ATCC19111): 0.125 µg/mL
MIC (Listeria monocytogenes): 0.125 µg/mL
MIC (Shigella flexneri; Shigella flexneri 668): 16 µg/mL
MIC (Shigella flexneri; Shigella flexneri HNCMB 20018): 8 µg/mL
MIC (Pseudomonas aeruginosa; ATCC27853, Pseudomonas aeruginosa ATCC 27853): 2 µg/mL
MIC (Pseudomonas aeruginosa; Pseudomonas aeruginosa ATCC 27853): 2 µg/mL
MIC (Pseudomonas aeruginosa; Pseudomonas aeruginosa B3-1811, Ciprofloxacin-R, Cephalosporin-R): 16 µg/mL
MIC (Clostridium difficile; Clostridioides difficile, BAA1875): ≤ 0.0312 µg/mL
MIC (Clostridium difficile; Clostridium difficile BAA-1875): < 0.0312 µg/mL
MIC (Staphylococcus aureus; Staphylococcus aureus (strain not given), MRSA (SCCmec type IV), Oxacillin-R, VSSA, Cephalosporin-R, Erythromycin-R): 0.063 µg/mL
MIC (Staphylococcus aureus; Staphylococcus aureus ATCC 29213): 0.5 µg/mL
MIC (Staphylococcus aureus; Staphylococcus aureus ATCC 33594, MSSA, VSSA): 0.125 µg/mL
MIC (Staphylococcus aureus; Staphylococcus aureus ATCC 43300, MRSA): 0.0625 µg/mL
MIC (Staphylococcus aureus; Staphylococcus aureus ATCC 700699 (Mu50, NRS1), MRSA, VISA): < 0.0312 µg/mL
MIC (Staphylococcus aureus; Staphylococcus aureus CDC AR-BANK 0218, MRSA, VISA): 0.125 µg/mL
MIC (Staphylococcus aureus; Staphylococcus aureus ECL 2963646, MRSA, VRSA): < 0.0312 µg/mL
MIC (Staphylococcus aureus; Staphylococcus aureus NRS271, MRSA, Linezolid-R): 0.25 µg/mL
MIC (Staphylococcus aureus; Staphylococcus aureus USA300, ATCC BAA-1717, MRSA): 0.063 µg/mL
MIC (Staphylococcus aureus; Staphylococcus aureus USA400, BAA-1707, NRS123, MRSA): 0.125 µg/mL
MIC (Staphylococcus aureus; Staphylococcus aureus, ATCC 700699 / MRSA / NRS 1 / VISA, S. aureus ATCC 700699 (Mu50, NRS1), MRSA, VISA): ≤ 0.0312 µg/mL
MIC (Staphylococcus aureus; Staphylococcus aureus, S. aureus ECL 2963646, MRSA, VRSA): ≤ 0.0312 µg/mL
MIC (Enterococcus faecium; Enterococcus faecium ATCC 19434): 0.5 µg/mL
MIC (Enterococcus faecium; Enterococcus faecium ATCC 700221, VRE (VanA+)): 0.0625 µg/mL
MIC (Enterococcus faecium; Enterococcus faecium CCUG 56858, VRE (VanB+)): 0.25 µg/mL
MIC (Helicobacter pylori): 4 µg/mL
Resistant colony number ([1]; VISA GyrB I175T, 4xMIC): lawn
Resistant colony number ([1]; VISA GyrB R144I, 4xMIC): lawn
Resistant colony number ([1]; VISA GyrB R144I, 8xMIC): lawn
Frequency-of-Resistance ([1]; VISA GyrB R144I, 12xMIC): 4.65E-08
Resistant colony number ([1]; VISA GyrB R144I, 12xMIC): 1312
Frequency-of-Resistance ([1]; VISA GyrB R144I, 16xMIC): 3.55E-11
Resistant colony number ([1]; VISA GyrB R144I, 16xMIC): 1
